In this experiment the target is T1, recombinant human ALK enzyme (ALK WT) (Homo sapiens, UniProt Q9UM73).
T1 construct: purchased Carna Biosciences 08-518
The experiment can be described thus: ALK WT cell free enzymatic assay (TR-FRET). It counts as biochemical. To be noted: 1 μM ATP; for IC50: 10 point dose response; for inhibition at 1 µM: compound at 1 μM; for inhibition at 1 µM / inhibition at 0.1 µM: 30 min pre-incubation; for inhibition at 0.1 µM: compound at 100 nM. Here is the method:
ALK Wild Type (WT) The ALK WT cell free assay was set up to evaluate the effects of these compounds as inhibitors of ALK enzyme. The enzymatic assay was standardized using recombinant human ALK enzyme (Cat#08-518) from Carna Biosciences using Ultra Light Poly GT (Cat# TRF 0100D) from Perkin Elmer as a substrate. TR-FRET (Time resolved fluorescence resonance energy transfer) detection technology was used for the read out. The final assay conditions were 50 mM HEPES pH 7.1, 10 mM MgCl2, 2 mM MnCl2, 0.01% BSA, 2.5 mM DTT, 0.1 mM Na3 VO4, 40 nM Ultra Light Poly GT, 2.5 ng ALK WT enzyme, 1 μM ATP and 125 nM Lance Eu-W1024 labeled anti phospho tyrosine antibody (Cat# AD0203, Perkin Elmer) in 384 well format. The assay reaction time with the substrate was 30 minutes after which the antibody detection mix is added. The TR-FRET signal (Excitation at 340 nm, Emission at 615 nm and 665 nm) was read with 50 μs delay time on Victor^3 V fluorimeter. The data is calculated using the ratio of reading at 665 nM to 615 nM. The final concentration of DMSO was 1% in the assay. Compounds were screened at 100 nM and 1 μM concentrations with pre-incubation of the enzymes with compound for 30 minutes. Each individual IC50 was determined using 10 point dose response curve generated by GraphPad Prism software Version 4 (San Diego, Calif., USA) using non linear regression curve fit for sigmoidal dose response (variable slope). Percentage inhibition at concentrations of 100 nM and 1.0 μM are given in table along with the IC50 (nM) details for selected examples.

Counter-ions that a name gives are not always drawn.

T1 sequence (Q9UM73 1058-1620 limits assumed): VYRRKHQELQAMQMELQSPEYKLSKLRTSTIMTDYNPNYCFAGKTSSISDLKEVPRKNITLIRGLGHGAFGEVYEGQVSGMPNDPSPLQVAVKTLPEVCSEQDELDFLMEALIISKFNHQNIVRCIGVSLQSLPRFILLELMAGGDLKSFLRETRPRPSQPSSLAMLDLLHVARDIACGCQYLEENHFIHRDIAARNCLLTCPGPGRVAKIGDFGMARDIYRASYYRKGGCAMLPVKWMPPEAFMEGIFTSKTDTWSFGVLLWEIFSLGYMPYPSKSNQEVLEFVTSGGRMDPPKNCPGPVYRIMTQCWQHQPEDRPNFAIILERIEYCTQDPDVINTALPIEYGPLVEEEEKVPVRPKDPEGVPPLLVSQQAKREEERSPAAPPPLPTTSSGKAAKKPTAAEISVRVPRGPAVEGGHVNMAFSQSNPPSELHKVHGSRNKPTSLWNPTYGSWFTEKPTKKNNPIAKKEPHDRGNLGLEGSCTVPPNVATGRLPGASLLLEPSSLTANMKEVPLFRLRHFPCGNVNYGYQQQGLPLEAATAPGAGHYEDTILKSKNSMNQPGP

`CS(=O)(=O)Nc1cccc(-c2cnc3[nH]cc(-c4cnn(Cc5cc(F)ccc5F)c4)c3c2)c1` [Example 4, N-(3-(3-(1-(2,5-difluorobenzyl)-1H-pyrazol-4-yl)-1H-pyrrolo[2,3-b]pyridin-5-yl)phenyl)methane sulfonamide]: the IC50 lay in the range of 50 to 250 nM and the inhibition at 1 µM was found to be 95%.

As for `OC1CCN(c2ccc(-c3cnc4[nH]cc(-c5cnn(Cc6cccc(F)c6)c5)c4c3)cc2)CC1` [Example 122, 1-(4-(3-(1-(3-fluorobenzyl)-1H-pyrazol-4-yl)-1H-pyrrolo[2,3-b]pyridin-5-yl)phenyl)piperidin-4-ol], the IC50 is less than 50 nM, the inhibition at 0.1 µM was found to be 90% and the inhibition at 1 µM came to 96%.

With `Cc1nn(Cc2cccc(F)c2)cc1-c1c[nH]c2ncc(-c3ccc(C4CCNCC4)cc3)cc12` [Example 90, 3-(1-(3-fluorobenzyl)-3-methyl-1H-pyrazol-4-yl)-5-(4-(piperidin-4-yl)phenyl)-1H-pyrrolo[2,3-b]pyridine], the 50% inhibitory concentration (IC50) is less than 50 nM, the inhibition at 0.1 µM was found to be 97% and the inhibition at 1 µM stood at 100%.

In the case of `Cc1nn(Cc2cccc(F)c2)c(C)c1-c1c[nH]c2ncc(-c3cccc(NC4CCNCC4)c3)cc12` [Example 94, N-(3-(3-(1-(3-fluorobenzyl)-3,5-dimethyl-1H-pyrazol-4-yl)-1H-pyrrolo[2,3-b]pyridin-5-yl)phenyl)piperidin-4-amine], the IC50 was less than 50 nM, the inhibition at 0.1 µM was 98% and the inhibition at 1 µM was 100%.

On to `COCCN1CCN(c2ccc(-c3cnc4[nH]cc(-c5cnn(Cc6cccc(F)c6)c5)c4c3)cn2)CC1` [Example 149, 3-(1-(3-fluorobenzyl)-1H-pyrazol-4-yl)-5-(6-(4-(2-methoxyethyl)piperazin-1-yl)pyridin-3-yl)-1H-pyrrolo[2,3-b]pyridine], for which the IC50 was less than 50 nM, the inhibition at 0.1 µM worked out at 95% and the inhibition at 1 µM came out at 100%.

As to `COc1cc(-c2cnc3[nH]cc(-c4cnn(Cc5cccc(F)c5)c4)c3c2)cnc1N` [Example 81, 5-(3-(1-(3-fluorobenzyl)-1H-pyrazol-4-yl)-1H-pyrrolo[2,3-b]pyridin-5-yl)-3-methoxypyridin-2-amine], the IC50 was less than 50 nM, the inhibition at 0.1 µM was found to be 94% and the inhibition at 1 µM turned out to be 96%.

For `Fc1cccc(Cn2cc(-c3c[nH]c4ncc(-c5ccc(C6CCNCC6)cc5)cc34)cn2)c1` [Example 82, 3-(1-(3-fluorobenzyl)-1H-pyrazol-4-yl)-5-(4-(piperidin-4-yl)phenyl)-1H-pyrrolo[2,3-b]pyridine], the IC50 was less than 50 nM, the inhibition at 0.1 µM turned out to be 99% and the inhibition at 1 µM worked out at 100%.

Consider `C[C@H](O)CN1CCN(c2ccc(-c3cnc4[nH]cc(-c5cnn(Cc6cccc(O)c6)c5)c4c3)cn2)CC1` [Example 151, (S)-3-((4-(5-(6-(4-(2-hydroxypropyl)piperazin-1-yl)pyridin-3-yl)-1H-pyrrolo[2,3-b]pyridin-3-yl)-1H-pyrazol-1-yl)methyl)phenol], for which the IC50 is less than 50 nM, the inhibition at 0.1 µM is 92% and the inhibition at 1 µM is 97%.

In the case of `Cc1nn(Cc2cccc(F)c2)c(C)c1-c1c[nH]c2ncc(-c3cnc(O)c(NS(C)(=O)=O)c3)cc12` [Example 66, N-(5-(3-(1-(3-fluorobenzyl)-3,5-dimethyl-1H-pyrazol-4-yl)-1H-pyrrolo[2,3-b]pyridin-5-yl)-2-hydroxypyridin-3-yl)methanesulfonamide], the inhibition at 0.1 µM is 38% and the inhibition at 1 µM was 95%.

Regarding `CS(=O)(=O)Nc1cc(-c2cnc3[nH]cc(-c4cnn(CCc5ccccc5)c4)c3c2)ccc1N1CCNCC1` [Example 107, N-(5-(3-(1-phenethyl-1H-pyrazol-4-yl)-1H-pyrrolo[2,3-b]pyridin-5-yl)-2-(piperazin-1-yl)phenyl) methanesulfonamide hydrochloride], the IC50 is less than 50 nM, the inhibition at 0.1 µM turned out to be 99% and the inhibition at 1 µM was 100%.

Take `COc1ccc(-c2cnc3[nH]cc(-c4cnn(Cc5cc(F)cc(F)c5)c4)c3c2)cc1NS(C)(=O)=O` [Example 71, N-(5-(3-(1-(3,5-difluorobenzyl)-1H-pyrazol-4-yl)-1H-pyrrolo[2,3-b]pyridin-5-yl)-2-methoxyphenyl)methanesulfonamide]: the 50% inhibitory concentration (IC50) was less than 50 nM, the inhibition at 0.1 µM is 94% and the inhibition at 1 µM is 100%.

Take `COc1ccc(Cn2cc(-c3c[nH]c4ncc(-c5cccc(NS(C)(=O)=O)c5)cc34)cn2)cc1` [Example 3, N-(3-(3-(1-(4-methoxybenzyl)-1H-pyrazol-4-yl)-1H-pyrrolo[2,3-b]pyridin-5-yl)phenyl)n methane sulfonamide]: the IC50 is more than 250 nM and the inhibition at 1 µM was determined as 65%.

As to `C[C@H](O)CN1CCN(c2ccc(-c3cnc4[nH]cc(-c5cnn(CCc6ccccc6)c5)c4c3)cn2)CC1` [Example 143, (S)-1-(4-(5-(3-(1-phenethyl-1H-pyrazol-4-yl)-1H-pyrrolo[2,3-b]pyridin-5-yl)pyridin-2-yl)piperazin-1-yl)propan-2-ol], the inhibition at 0.1 µM was 60% and the inhibition at 1 µM is 98%.

Regarding `COc1cccc(Cn2cc(-c3c[nH]c4ncc(-c5ccc(C6CCNCC6)cc5)cc34)cn2)c1` [Example 87, 3-(1-(3-methoxybenzyl)-1H-pyrazol-4-yl)-5-(4-(piperidin-4-yl)phenyl)-1H-pyrrolo[2,3-b]pyridine], the IC50 was less than 50 nM, the inhibition at 0.1 µM was found to be 84% and the inhibition at 1 µM stood at 99%.

Regarding `CS(=O)(=O)Nc1cccc(-c2cnc3[nH]cc(-c4cnn(Cc5ccc(F)cc5)c4)c3c2)c1` [Example 5, N-(3-(3-(1-(4-fluorobenzyl)-1H-pyrazol-4-yl)-1H-pyrrolo[2,3-b]pyridin-5-yl)phenyl) methanesulfonamide], the IC50 was 50 to 250 nM and the inhibition at 1 µM stood at 69%.

Turning to `Nc1cc(-c2cnc3[nH]cc(-c4cnn(Cc5cccc(F)c5)c4)c3c2)ccc1N1CCNCC1` [Example 105, 5-(3-(1-(3-fluorobenzyl)-1H-pyrazol-4-yl)-1H-pyrrolo[2,3-b]pyridin-5-yl)-2-(piperazin-1-yl) aniline], the IC50 is less than 50 nM, the inhibition at 0.1 µM turned out to be 98% and the inhibition at 1 µM came to 100%.

Regarding `Cc1nn(Cc2cccc(F)c2)c(C)c1-c1c[nH]c2ncc(-c3ccc(NC4CCNCC4)cc3)cc12` [Example 101, N-(4-(3-(1-(3-fluorobenzyl)-3,5-dimethyl-1H-pyrazol-4-yl)-1H-pyrrolo[2,3-b]pyridin-5-yl)phenyl)piperidin-4-amine], the IC50 is less than 50 nM, the inhibition at 0.1 µM came to 99% and the inhibition at 1 µM came to 100%.

On to `Cc1nn(Cc2cccc(F)c2)c(C)c1-c1c[nH]c2ncc(-c3ccc(OCCCO)c(NS(C)(=O)=O)c3)cc12` [Example 25, N-(5-(3-(1-(3-fluorobenzyl)-3,5-dimethyl-1H-pyrazol-4-yl)-1H-pyrrolo[2,3-b]pyridin-5-yl)-2-(3-hydroxypropoxyl)phenyl)methanesulfonamide], for which the IC50 was less than 50 nM, the inhibition at 0.1 µM came to 86% and the inhibition at 1 µM stood at 93%.

Consider `O=C(CC1CC1)N1CCN(c2ccc(-c3cnc4[nH]cc(-c5cnn(Cc6cccc(F)c6)c5)c4c3)cc2)CC1` [Example 124, 2-cyclopropyl-1-(4-(4-(3-(1-(3-fluorobenzyl)-1H-pyrazol-4-yl)-1H-pyrrolo[2,3-b]pyridin-5-yl)phenyl)piperazin-1-yl)ethanone], for which the IC50 is more than 250 nM, the inhibition at 0.1 µM is 17% and the inhibition at 1 µM stood at 86%.

As to `COc1ccc(-c2cnc3[nH]c(C4CC4)c(-c4c(C)nn(Cc5cccc(F)c5)c4C)c3c2)cc1NS(C)(=O)=O` [Example 30, N-(5-(2-cyclopropyl-3-(1-(3-fluorobenzyl)-3,5-dimethyl-1H-pyrazol-4-yl)-1H-pyrrolo[2,3-b]pyridin-5-yl)-2-methoxyphenyl)methanesulfonamide], the inhibition at 0.1 µM amounted to 21% and the inhibition at 1 µM is 21%.

`C[C@H](O)CN1CCN(c2ccc(-c3cnc4[nH]cc(-c5cnn(Cc6cccc(F)c6)c5)c4c3)cc2F)CC1` [Example 114, (S)-1-(4-(2-fluoro-4-(3-(1-(3-fluorobenzyl)-1H-pyrazol-4-yl)-1H-pyrrolo[2,3-b]pyridin-5-yl)phenyl)piperazin-1-yl)propan-2-ol]: the inhibition at 0.1 µM amounted to 92% and the inhibition at 1 µM came out at 99%.

As for `C[C@H](O)CN1CCN(c2ccc(-c3cnc4[nH]cc(-c5cnn(Cc6cc(F)cc(F)c6)c5)c4c3)cn2)CC1` [Example 135, (S)-1-(4-(5-(3-(1-(3,5-difluorobenzyl)-1H-pyrazol-4-yl)-1H-pyrrolo[2,3-b]pyridin-5-yl)pyridin-2-yl)piperazin-1-yl)propan-2-ol], the IC50 is less than 50 nM, the inhibition at 0.1 µM stood at 95% and the inhibition at 1 µM stood at 100%.

One may read the IC50 as the point on the concentration scale where inhibition reaches its midpoint. What is called inhibition is the relative decrease from the control value, in per cent.
